Measurements taken from PMC9144282 (Viruses, 2022).
Like-named read-outs stand apart in the source and are kept apart here. Marks after values point to notes of the source that are not given here.

Key:
[1] = Height of nanomaterials by AFM; assay type: physicochemical
[2] = molecular target: SARS-CoV-2 recombinant antigen N (Severe acute respiratory syndrome coronavirus 2, UniProt P0DTC9)
[3] = test system: MS2 RNA; assay: RNase activity by RT^2-PCR, isolated MS2 RNA; assay type: biochemical, bacteriophage MS2; conditions: 0.1 mg/mL, 37 °C
[4] = test system: human cell lines (HEp-2, L41, HT-29); assay: MTT cytotoxicity test, three human cell lines taken together; assay type: cell-based
[5] = test system: SARS-CoV-2 RNA from COVID-19 Patient Blood; assay type: biochemical
[6] = test system: HT-29; assay: MTT cytotoxicity test, HT-29 cells; conditions: HT-29, MTT; concentration of the studied substance
[7] = test system: L41; assay: MTT cytotoxicity test, L41 cells; conditions: concentration of the studied substance
[8] = set-up: method as in earlier work; conditions: cited from earlier work
[9] = Stability on storage / in media; assay type: physicochemical; conditions: storage in water solution
[10] = test system: SARS-CoV-2 RNA; assay type: biochemical; conditions: 0.1 mg/mL, 37 °C
[11] = test system: MS2 Phage; assay: RNase activity by RT^2-PCR, whole MS2 phage; assay type: biochemical, bacteriophage MS2; conditions: 0.1 mg/mL
[12] = test system: influenza A viral and cellular RNA; set-up: method as in earlier work; conditions: 2 mM, 1 h at 37 °C; cited from earlier work
[13] = test system: IL-17A; assay: xMAP inflammation biomarkers in HEp-2 cells; assay type: cell-based, human; conditions: 2 days posttreatment, concentrations below CC50
[14] = test system: IL-2; assay: xMAP inflammation biomarkers in HEp-2 cells; assay type: cell-based, human; conditions: 2 days posttreatment, concentrations below CC50
[15] = test system: IL-10; assay: xMAP inflammation biomarkers in HEp-2 cells; assay type: cell-based, human; conditions: 2 days posttreatment, concentrations below CC50
[16] = test system: MCP-1 (MCAP); assay: xMAP inflammation biomarkers in HEp-2 cells; assay type: cell-based, human; conditions: 2 days posttreatment, concentrations below CC50
[17] = test system: MIP-1β; assay: xMAP inflammation biomarkers in HEp-2 cells; assay type: cell-based, human; conditions: 2 days posttreatment, concentrations below CC50
[18] = test system: IL-1β; assay: xMAP inflammation biomarkers in HEp-2 cells; assay type: cell-based, human; conditions: two days after addition
[19] = test system: GM-CSF; assay: xMAP inflammation biomarkers in HEp-2 cells; assay type: cell-based, human; conditions: 2 days posttreatment, concentrations below CC50
[20] = test system: HEp-2; assay: MTT cytotoxicity test, HEp-2 cells; conditions: HEp-2, MTT; concentration of the studied substance
[21] = test system: IFNγ; assay: xMAP inflammation biomarkers in HEp-2 cells; assay type: cell-based, human; conditions: 2 days posttreatment, concentrations below CC50
[22] = test system: IL-8; assay: xMAP inflammation biomarkers in HEp-2 cells; assay type: cell-based, human; conditions: 2 days posttreatment, concentrations below CC50
[23] = test system: IL-12(p70); assay: xMAP inflammation biomarkers in HEp-2 cells; assay type: cell-based, human; conditions: 2 days posttreatment, concentrations below CC50
[24] = test system: G-CSF; assay: xMAP inflammation biomarkers in HEp-2 cells; assay type: cell-based, human; conditions: 2 days posttreatment, concentrations below CC50
[25] = test system: TNFα; assay: xMAP inflammation biomarkers in HEp-2 cells; assay type: cell-based, human; conditions: 2 days posttreatment, concentrations below CC50
[26] = test system: IL-5; assay: xMAP inflammation biomarkers in HEp-2 cells; assay type: cell-based, human; conditions: 2 days posttreatment, concentrations below CC50
[27] = test system: IL-4; assay: xMAP inflammation biomarkers in HEp-2 cells; assay type: cell-based, human; conditions: 2 days posttreatment, concentrations below CC50
[28] = test system: HT-29
[29] = test system: IL-13; assay: xMAP inflammation biomarkers in HEp-2 cells; assay type: cell-based, human; conditions: 2 days posttreatment, concentrations below CC50
[30] = molecular target: SARS-CoV-2 recombinant antigen S2 (Severe acute respiratory syndrome coronavirus 2, UniProt P0DTC2)
[31] = test system: IL-7; assay: xMAP inflammation biomarkers in HEp-2 cells; assay type: cell-based, human; conditions: 2 days posttreatment, concentrations below CC50
[32] = test system: IL-6; assay: xMAP inflammation biomarkers in HEp-2 cells; assay type: cell-based, human; conditions: 2 days posttreatment, concentrations below CC50
[33] = test system: L41

Molecule: Li^+[Ag^+2Cys2^−(OH^−)2(NH3)2] [Ag-2S]
- Particle height range (AFM) ([1]; height distribution histograms, includes protein shell for Ag NCs-IgG): 1–2 nm
- Most probable height (AFM) ([1]; height histograms): ~ 1 nm
- Effect on binding of antigen N with polyclonal antibodies (ELISA) [2]: did not significantly differ from the positive controls
- Time for complete cleavage of isolated MS2 RNA [3]: 15 min
- CC50 ([4]; over the human cell lines (Table 1)): 5.3 to 21.2 µg/mL
- CC50 ([4]; range over the human cell lines, read-out: CC50): 10 to 40 µM
- ΔCt = Ct (sample) − Ct (control), SARS-CoV-2 RNA from COVID-19 Patient Blood [5]: 1.6
- Cytotoxic concentration CC50 [6]: 15.9 (3.24 Ag+) μg/mL
- Cytotoxic concentration CC50 [7]: 21.2 (4.32 Ag+) μg/mL
- Damage of cellular DNA and viral antigens after incubation [8]: neither cellular DNA nor viral antigens were damaged
- Stability of structure and physico-chemical properties during storage [9]: up to 10 years
- Incubation necessary for exhaustive hydrolysis of SARS-CoV-2 RNA [10]: 1 h
- ΔCt = Ct (sample) − Ct (control), MS2 Phage ([11]; 37 °C, RT^2-PCR): 7.5
- Cleavage of total RNA [12]: Complete cleavage

Molecule: O=[N+]([O-])[O-].[Ag+] [AgNO3]
- IL-17A, ratio of MFI to control intact cells [13]: 0.97
- IL-2, ratio of MFI to control intact cells [14]: 0.74
- IL-10, ratio of MFI to control intact cells [15]: 0.78
- MCP-1 (MCAP), ratio of MFI to control intact cells [16]: 1.19 ↑
- Effect on binding of antigen N with polyclonal antibodies (ELISA) [2]: inhibit binding
- Lowest concentration for significant reproducible binding suppression [2]: 100 µg/mL
- Time for complete cleavage of isolated MS2 RNA [3]: 15 min
- MIP-1β, ratio of MFI to control intact cells [17]: 1.17 ↑
- IL1β production [18]: up to 0.08 pg/mL
- Toxicity for three human cell lines ([4]; silver ions at 10 μg/mL): not toxic
- GM-CSF, ratio of MFI to control intact cells [19]: 0.92
- Cytotoxic concentration CC50 [20]: 50 (31.75 Ag+) * μg/mL
- IFNγ, ratio of MFI to control intact cells [21]: 1.03
- IL-8, ratio of MFI to control intact cells [22]: 3.71 ↑
- Cytotoxic concentration CC50 [6]: 100 (63.49 Ag+) μg/mL
- Cytotoxic concentration CC50 [7]: 100 (63.49 Ag+) μg/mL
- IL-12(p70), ratio of MFI to control intact cells [23]: 0.70
- G-CSF, ratio of MFI to control intact cells [24]: 1.12 ↑
- TNFα, ratio of MFI to control intact cells [25]: 1.15 ↑
- IL-5, ratio of MFI to control intact cells [26]: 0.88
- Incubation necessary for exhaustive hydrolysis of SARS-CoV-2 RNA [10]: 1 h
- ΔCt = Ct (sample) − Ct (control), SARS-CoV-2 RNA ([10]; RT^2-PCR): 0.9
- IL-4, ratio of MFI to control intact cells [27]: 0.84
- CC50, corresponding concentration of Ag+ [28]: 100 (63.49 Ag+) μg/mL
- IL-13, ratio of MFI to control intact cells [29]: 0.81
- Incubation required for complete damage of RNA inside the MS2 phage ([11]; 37 °C (data not shown)): at least 1 h
- Effect on binding of antigen S2 with polyclonal antibodies (ELISA) [30]: inhibit binding
- Lowest concentration for significant reproducible binding suppression ([30]; ELISA, antigen S2 with human polyclonal antibodies): 100 µg/mL
- IL-7, ratio of MFI to control intact cells [31]: 0.70
- IL-6, ratio of MFI to control intact cells [32]: 0.85
- CC50, corresponding concentration of Ag+ [33]: 100 (63.49 Ag+) μg/mL
